In PubChem BioAssay AID248 (DTP/NCI, 2004):
Where “and” joins values, the source holds several entries; their conditions need not be identical. Equal entries are not always repeated. Toxic doses and inconclusive results are not listed. Rule as the data show it: active = T/C of 150% or more; inactive = T/C below 125%.

Test system: L1210 leukemia ip in BDF1 mice, survival T/C
Assay: NCI In Vivo Anticancer Drug Screen. Data for tumor model L1210 Leukemia (intraperitoneal) in B6D2F1 (BDF1) mice
Settings: endpoint: mean survival time, higher = longer survival
How it was run: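 Transplantable tumor model; survival measured in treated vs vehicle control mice. Value = treated/control.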

[1] = dose: 100.0 mg/kg/injection, schedule: Q01DX001 (ip), vehicle: saline
[2] = dose: 100.0 mg/kg/injection, schedule: Q04DX003 (ip), vehicle: saline
[3] = dose: 200.0 mg/kg/injection, schedule: Q04DX003 (ip), vehicle: saline
[4] = dose: 100.0 mg/kg/injection, schedule: Q01DX009 (ip), vehicle: saline with Tween-80
[5] = dose: 100.0 mg/kg/injection, schedule: Q04DX003 (ip), vehicle: saline with Tween-80
[6] = dose: 200.0 mg/kg/injection, schedule: Q04DX003 (ip), vehicle: saline with Tween-80
[7] = dose: 400.0 mg/kg/injection, schedule: Q04DX003 (ip), vehicle: saline with Tween-80
[8] = dose: 50.0 mg/kg/injection, schedule: Q01DX009 (ip), vehicle: saline with Tween-80
[9] = dose: 100.0 mg/kg/injection, schedule: Q01DX001 (ip), vehicle: carboxymethylcellulose (CMC)
[10] = dose: 200.0 mg/kg/injection, schedule: Q01DX001 (ip), vehicle: carboxymethylcellulose (CMC)
[11] = dose: 400.0 mg/kg/injection, schedule: Q01DX001 (ip), vehicle: carboxymethylcellulose (CMC)

Measured: T/C

CC(C)[P+](c1ccccc1)(c1ccccc1)c1ccccc1
inactive: dose: 5.0 mg/kg/injection, schedule: Q01DX001 (ip), vehicle: saline 108 % of control | dose: 10.0 mg/kg/injection, schedule: Q01DX001 (ip), vehicle: saline 111 % of control | dose: 16.25 mg/kg/injection, schedule: Q01DX009 (ip), vehicle: saline 100 % of control | dose: 20.0 mg/kg/injection, schedule: Q01DX001 (ip), vehicle: saline 118 % of control | dose: 25.0 mg/kg/injection, schedule: Q04DX003 (ip), vehicle: saline 113 % of control | dose: 40.0 mg/kg/injection, schedule: Q01DX001 (ip), vehicle: saline 113 % of control | dose: 50.0 mg/kg/injection, schedule: Q04DX003 (ip), vehicle: saline 103 % of control | dose: 65.0 mg/kg/injection, schedule: Q04DX003 (ip), vehicle: saline 107 % of control and 116 % of control | [1] 108 % of control | [2] 118 % of control | dose: 150.0 mg/kg/injection, schedule: Q04DX003 (ip), vehicle: saline 90 % of control

Cc1ccc(C)c(Nc2nc(Cl)nc3ncn(C)c23)c1
inactive: dose: 100.0 mg/kg/injection, schedule: Q01DX001 (ip), vehicle: other 103 % of control | dose: 100.0 mg/kg/injection, schedule: Q04DX003 (ip), vehicle: other 102 % of control | dose: 200.0 mg/kg/injection, schedule: Q01DX001 (ip), vehicle: other 90 % of control | dose: 200.0 mg/kg/injection, schedule: Q04DX003 (ip), vehicle: other 117 % of control | dose: 400.0 mg/kg/injection, schedule: Q01DX001 (ip), vehicle: other 94 % of control | dose: 400.0 mg/kg/injection, schedule: Q04DX003 (ip), vehicle: other 110 % of control

Cc1cc(N=C2C=C(Br)C(=O)C(Br)=C2)cc(CN(CC(=O)O)CC(=O)O)c1O
inactive: [1] 105 % of control | dose: 200.0 mg/kg/injection, schedule: Q01DX001 (ip), vehicle: saline 111 % of control | dose: 400.0 mg/kg/injection, schedule: Q01DX001 (ip), vehicle: saline 100 % of control

O=C(Nc1ccc(Cl)cc1)C(O)C(O)C(O)C(O)CO (configuration not stated)
inactive: dose: 50.0 mg/kg/injection, schedule: Q01DX009 (ip), vehicle: saline 100 % of control | dose: 100.0 mg/kg/injection, schedule: Q01DX009 (ip), vehicle: saline 103 % of control | dose: 200.0 mg/kg/injection, schedule: Q01DX009 (ip), vehicle: saline 100 % of control

COC1OC(CO)C(O)C(N)C1O (configuration not stated)
inactive: [2] 109 % of control | [3] 98 % of control

O=C(O)c1cc(I)cc(I)c1I
inactive: dose: 100.0 mg/kg/injection, schedule: Q04DX002 (ip), vehicle: Klucel (hydroxypropylcellulose) (HPC) 105 % of control | dose: 200.0 mg/kg/injection, schedule: Q04DX002 (ip), vehicle: Klucel (hydroxypropylcellulose) (HPC) 88 % of control | dose: 400.0 mg/kg/injection, schedule: Q04DX002 (ip), vehicle: Klucel (hydroxypropylcellulose) (HPC) 102 % of control

Cc1cc(=O)[nH]c(N/N=C/c2ccccc2)n1
inactive: dose: 100.0 mg/kg/injection, schedule: Q01DX009 (ip), vehicle: gum acacia 88 % of control | dose: 100.0 mg/kg/injection, schedule: Q04DX003 (ip), vehicle: gum acacia 93 % of control | dose: 200.0 mg/kg/injection, schedule: Q04DX003 (ip), vehicle: gum acacia 97 % of control | dose: 400.0 mg/kg/injection, schedule: Q01DX009 (ip), vehicle: gum acacia 91 % of control | dose: 400.0 mg/kg/injection, schedule: Q04DX003 (ip), vehicle: gum acacia 93 % of control

COC(=O)C(CSCSC)NC(=O)/C=C/c1ccccc1C (configuration not stated)
inactive: [4] 101 % of control | [5] 95 % of control | dose: 200.0 mg/kg/injection, schedule: Q01DX009 (ip), vehicle: saline with Tween-80 101 % of control | [6] 93 % of control | dose: 400.0 mg/kg/injection, schedule: Q01DX009 (ip), vehicle: saline with Tween-80 113 % of control | [7] 97 % of control

N=C(CCCc1ccccc1)SCc1ccccc1
inactive: [8] 103 % of control | dose: 50.0 mg/kg/injection, schedule: Q04DX003 (ip), vehicle: saline with Tween-80 94 % of control | dose: 100.0 mg/kg/injection, schedule: Q01DX001 (ip), vehicle: saline with Tween-80 102 % of control | [4] 92 % of control | [5] 93 % of control | dose: 200.0 mg/kg/injection, schedule: Q01DX001 (ip), vehicle: saline with Tween-80 102 % of control

N#C/C(=C\c1ccco1)C1CCCCC1
inactive: dose: 100.0 mg/kg/injection, schedule: Q04DX002 (ip), vehicle: other 86 % of control | dose: 200.0 mg/kg/injection, schedule: Q04DX002 (ip), vehicle: other 104 % of control

O=[N+]([O-])c1ccc(NC(=S)NS(=O)(=O)c2ccccc2)c(Cl)c1
inactive: dose: 100.0 mg/kg/injection, schedule: Q01DX009 (ip), vehicle: Klucel (hydroxypropylcellulose) (HPC) 97 % of control | dose: 200.0 mg/kg/injection, schedule: Q01DX009 (ip), vehicle: Klucel (hydroxypropylcellulose) (HPC) 97 % of control | dose: 400.0 mg/kg/injection, schedule: Q01DX009 (ip), vehicle: Klucel (hydroxypropylcellulose) (HPC) 88 % of control

Cc1ccc(S(=O)(=O)OCC2OC(n3cnc4c(N)ncnc43)C(OS(=O)(=O)c3ccc(C)cc3)C2N=[N+]=[N-])cc1 (configuration not stated)
inactive: dose: 100.0 mg/kg/injection, schedule: Q01DX005 (ip), vehicle: saline 106 % of control | dose: 200.0 mg/kg/injection, schedule: Q01DX005 (ip), vehicle: saline 92 % of control

CN1CCCC1CCNc1nc(C(Cl)(Cl)Cl)nc2ccc(Cl)cc12 (configuration not stated)
inactive: dose: 25.0 mg/kg/injection, schedule: Q01DX009 (ip), vehicle: saline with Tween-80 106 % of control | [8] 96 % of control | [4] 106 % of control | [5] 88 % of control

COc1ccc(CN2CCCN(Cc3ccc(OC)cc3OC)C2c2ccc(OC)cc2OC)c(OC)c1
inactive: dose: 50.0 mg/kg/injection, schedule: Q01DX001 (ip), vehicle: carboxymethylcellulose (CMC) 93 % of control | [9] 104 % of control | [10] 93 % of control | [11] 98 % of control

O=[N+]([O-])c1ccc2c(c1)COCO2
inactive: [5] 95 % of control | [6] 95 % of control | [7] 97 % of control

CCCCOP1(=O)C=C(C)CC1 (configuration not stated)
inactive: [5] 90 % of control | [6] 97 % of control | [7] 92 % of control

O=C1c2ccccc2C(=O)c2c(O)c(Cc3ccccc3)cc(O)c21
inactive: [2] 105 % of control | [3] 97 % of control | dose: 400.0 mg/kg/injection, schedule: Q04DX003 (ip), vehicle: saline 97 % of control

CCOC(=O)NC(NC(=O)OCC)C(NC(=O)OCC)NC(=O)OCC
inactive: [9] 87 % of control | [10] 91 % of control | [11] 91 % of control

O=Cc1[nH]c(=O)[nH]c(=O)c1Cc1ccc(Cl)cc1
inactive: [5] 98 % of control | [6] 102 % of control

O=[N+]([O-])c1ccc(N=C(Cl)c2ccccc2)cc1
inactive: [5] 98 % of control | [6] 98 % of control | [7] 104 % of control
